Results reported in ChEMBL document CHEMBL3351254, “Rational design, synthesis and anti-proliferative evaluation of novel 1,4-benzoxazine-[1,2,3]triazole hybrids” (2015).

Key:
Type in all cases: functional
[1] = Antiproliferative activity against human IMR32 cells assessed as reduction in net protein increase after 48 hrs by SRB assay; conditions: IMR-32, 48 h
[2] = Antiproliferative activity against human MiaPaCa cells assessed as reduction in net protein increase after 48 hrs by SRB assay; conditions: MIA PaCa-2, 48 h
[3] = test system: MDA-MB-231; experiment: Antiproliferative activity against human MDA-MB-231 cells assessed as reduction in net protein increase after 48 hrs by SRB assay; conditions: MDA-MB-231, 48 h
[4] = test system: HeLa; experiment: Antiproliferative activity against human HeLa cells assessed as reduction in net protein increase after 48 hrs by SRB assay

Compound | GI50 [3] | GI50 [4] | GI50 [1] | GI50 [2]
CCCCCc1ccc(-c2cn(CCCN3C(=O)COc4ccccc43)nn2)cc1 | 5000 nM | > 100000 nM | 43500 nM | > 100000 nM
O=C1COc2ccccc2N1CCCn1cc(-c2ccccn2)nn1 | 4800 nM | 10000 nM | 2000 nM | 5800 nM
CC(=O)O[C@H]1C(=O)[C@@]2(C)[C@H]([C@H](OC(=O)c3ccccc3)[C@]3(O)C[C@H](OC(=O)[C@H](O)[C@@H](NC(=O)c4ccccc4)c4ccccc4)C(C)=C1C3(C)C)[C@]1(OC(C)=O)CO[C@@H]1C[C@@H]2O [PACLITAXEL] | 91 nM | 25 nM | 75 nM | 56 nM
CCCc1cn(CCCN2C(=O)COc3ccccc32)nn1 | 1100 nM | 23200 nM | 1400 nM | 2600 nM
O=C1COc2ccccc2N1CCCn1cc(CO)nn1 | 5700 nM | 7300 nM | 5500 nM | 1010 nM
COc1cccc2c1C(=O)c1c(O)c3c(c(O)c1C2=O)C[C@@](O)(C(=O)CO)C[C@@H]3O[C@H]1C[C@H](N)[C@H](O)[C@H](C)O1 [DOXORUBICIN] | 85 nM | 73 nM | 23 nM | 97 nM
O=C1COc2ccccc2N1CCCn1cc(-c2cc3ccccc3c3ccccc23)nn1 | > 100000 nM | > 100000 nM | 130 nM | 8400 nM
COc1ccc2cc(-c3cn(CCCN4C(=O)COc5ccccc54)nn3)ccc2c1 | 5000 nM | > 100000 nM | 1300 nM | > 100000 nM

Further lines, with some results ahead:

GI50 [3] | GI50 [4] | Compound | GI50 [1] | GI50 [2]
1200 nM | 2000 nM | O=C1COc2ccccc2N1CCCn1cc(C2(O)CCCCC2)nn1 | 1200 nM | 2500 nM
6400 nM | 100 nM | O=C1COc2ccccc2N1CCCn1cc(CCCCl)nn1 | 200 nM | 12500 nM
3000 nM | > 100000 nM | O=C1COc2ccccc2N1CCCn1cc(-c2cccnc2)nn1 | 860 nM | 8200 nM
3600 nM | 1020 nM | CCCCc1cn(CCCN2C(=O)COc3ccccc32)nn1 | 5700 nM | 2500 nM
1120 nM | 14300 nM | Cc1ccc(-c2cn(CCCN3C(=O)COc4ccccc43)nn2)cc1 | 4400 nM | > 100000 nM
4900 nM | 9000 nM | O=C1COc2ccccc2N1CCCn1cc(-c2ccccc2)nn1 | 370 nM | 94000 nM
1100 nM | 100 nM | CCCCCCc1cn(CCCN2C(=O)COc3ccccc32)nn1 | 710 nM | 150 nM
41500 nM | 4900 nM | COc1ccc(-c2cn(CCCN3C(=O)COc4ccccc43)nn2)cc1 | 49900 nM | 15700 nM
